Earlier results in patent US20240277751A1, “CRYSTALLINE POLYMORPHIC FORMS OF STING AGONISTS ASSOCIATED WITH METAL IONS CAPABLE OF MODULATING AN IMMUNE RESPONSE” (priority 2020, published 2024).

Nc1ncnc2c1ncn2[C@@H]1O[C@@H]2COP(=O)([S-])O[C@@H]3[C@H](O)[C@@H](COP([O-])(=S)O[C@H]2[C@H]1O)O[C@H]3n1cnc2c(N)ncnc21.[Na+].[Na+] (some centres unmarked) [MIW815]
fraction entered the systemic circulation (1 hour after intratumor injection, phase I clinical trial): over 98% | half-life in serum (in vivo): ~16 min
